Data reported in US20150174273A1, “IMAGING AND THERAPEUTIC METHODS FOR TREATING PARATHYROID TUMORS” (EMORY UNIVERSITY, priority 2012, published 2015).

Experiments:
[1] = tested on: FRs on freshly excised, non-cultured human PT adenoma cells; experiment: 99mTc-EC20 uptake by PT adenoma cell slurry with or without cold folate block; assay type: cell-based; conditions: for 99mTc-EC20 uptake, not blocked: absence of cold folate; for 99mTc-EC20 uptake, blocked: pre-incubation with cold folate (200 μM)
Procedure: Some aliquots of cells were blocked by pre-incubation with cold folate (FA) (yellow bars).

[2] = tested on: primary human parathyroid cells; experiment: 18F FACBC uptake assay; assay type: cell-based; conditions: preliminary experiments
Excerpt: BCH is L type transporter inhibitor (2-amino-2-norboranecarboxylic acid), MeAlB is an A type inhibitor (2-[methylamine]isobutric acid), ACS is a multiple amino acid transporter inhibitor (L-alanine, L-cystine, L-serine).
In certain embodiments, the disclosure contemplates methods of ^18F-FACBC Imaging. […] See McConathy et al., Appl Radiat Isot. 2003; 58(6):657-66, hereby incorporated by reference. Parathormone is a peptide hormone, and the bioactive conformation includes a long helical dimer containing leucine residues. […] It is contemplated that parathyroid cells concentrate Anti-^18F-FACBC, and thus Anti-^18F-FACBC can be used as an imaging probe for PET imaging.

[3] = in vivo; cited from earlier work

SMILES	99mTc-EC20 uptake, not blocked ([1]; 20 μl PT adenoma cell slurry) [% dose/20 μl tissue prep]	99mTc-EC20 uptake, blocked ([1]; 20 μl PT adenoma cell slurry) [% dose/20 μl tissue prep]	99mTc-EC20 uptake, not blocked ([1]; 70 μl PT adenoma cell slurry) [% dose/70 μl tissue prep]	99mTc-EC20 uptake, blocked ([1]; 70 μl PT adenoma cell slurry) [% dose/70 μl tissue prep]	uptake of Anti-18F-FACBC by primary human parathyroid cells [2]	pancreatic concentration [3]	renal excretion [3]
[NH-][C@@H](CNC(=O)CC[C@@H](NC(=O)c1ccc(NCc2cnc3nc(N)[nH]c(=O)c3n2)cc1)C(=O)O)C(=O)[N-][C@@H](CC(=O)O)C(=O)[N-][C@@H](C[S-])C(=O)O.[O]=[Tc+4] [99mTc-EC20]	3.4±0.4	1.9±0.2	10.9±0.9	5.7±0.3			
NC1(C(=O)O)CC([18F])C1 (stereo not drawn) [Anti-^18F-FACBC, anti-1-amino-^18F-flurocyclobutane-1 carboxylic acid]					significant specific uptake	high pancreatic concentration	low renal excretion
